Where “and” joins values, the source holds several entries; their conditions need not be identical. Equal entries are not always repeated.
How the values were obtained:
Assay type in all cases: physicochemical
[1] = 35°C color optical density (A35): absorbancy difference ε(240)-ε(0) after 240 s light irradiation at 35°C; details: 240 s irradiation; for 35°C color optical density (-): comparative compounds
Protocol: (§1) • [1] Maximum Absorption Wavelength (λmax): The maximum absorption wavelength after color development, measured using a spectrophotometer (instantaneous multichannel photodetector MCPD3000) manufactured by Otsuka Electronics Co., Ltd. was used as an indicator for the color tone during the color development. • [2] 23°C Color Optical Density (A23): A difference between an absorbancy measured after light irradiation at 23°C for 240 seconds {ε(240)} and an absorbancy without light irradiation ε(0) at the maximum absorption wavelength was used as an indicator for the color optical density. […] 35°C Color Optical Density (A35): A difference between an absorbancy measured after light irradiation at 35°C for 240 seconds {ε(240)} and an absorbancy without light irradiation ε(0) at the first and second absorption wavelengths was used as an indicator for the color optical density. […] 23°C color fading half-life [τ1/2 (sec.)]: A time required for the absorbancy of the sample at the maximum absorption wavelength to decrease to 1/2 of {ε(240)-ε(0)} when the light irradiation is terminated after the light irradiation at 23°C for 240 seconds, was used as an indicator for the color fading speed. The shorter this time, the higher the color fading speed. • [6] Residual rate (A90/A0×100): The obtained photochromic plastic lens was subjected to accelerated deterioration using a xenon weather meter X25 manufactured by Suga Test Instruments Co., Ltd. for 90 hours. Subsequently, the color optical density was evaluated before and after the test, then a color optical density before the test (A0) and a color optical density after the test (A90) were measured, and a ratio (A90/A0) was defined as a residual rate. The residual rate was used as an indicator for a color developing durability. The higher the residual rate, the higher the color developing durability.

[2] = 23°C color optical density (A23): absorbancy difference ε(240)-ε(0) after 240 s light irradiation at 23°C; details: 240 s irradiation; for 23°C color optical density (-): comparative compounds
Protocol: as §1

[3] = High-temperature color development rate (A35/A23×100), temperature dependency; details: for Temperature change rate (%): comparative compounds, corresponds to A35/A23×100
Protocol: as §1

[4] = Residual rate (A90/A0×100) after 90 h accelerated deterioration in xenon weather meter X25, color developing durability; details: for Residual rate: after 90 h accelerated deterioration; for Residual rate (%): xenon weather meter 90 hours
Protocol: as §1

[5] = Maximum absorption wavelength (λmax) after color development, spectrophotometer MCPD3000; details: for Maximum absorption wavelength: after color development
Protocol: as §1

[6] = photochromic laminate by coating method, absorption band at 474 nm
[7] = photochromic laminate by coating method, absorption band at 567 nm
[8] = binder sheet (binder method), at 474 nm absorption maximum
[9] = binder sheet (binder method), at 566 nm absorption maximum
[10] = binder sheet (binder method), absorption peak at 474 nm
[11] = binder sheet (binder method), absorption peak at 566 nm
[12] = cured product by kneading method, 1 mm
[13] = photochromic laminate by coating method
[14] = photochromic cured product, thickness 1 mm (kneading method), absorption band at 476 nm
[15] = photochromic cured product, thickness 1 mm (kneading method), absorption band at 573 nm
[16] = photochromic laminate prepared by coating method, absorption band at 474 nm
[17] = photochromic laminate prepared by coating method, absorption band at 567 nm
[18] = photochromic laminate by coating method, at the maximum absorption wavelength
[19] = binder sheet (binder method), urethaneurea resin photochromic layer between polycarbonate sheets, 0.25 mmol per 100 parts by mass resin
[20] = photochromic laminate by coating method, 40 µm photochromic layer on thiourethane lens, 0.25 mmol compound per 100 g monomers
[21] = photochromic cured product by kneading method, 1 mm thick thiourethane, 0.106 mmol per 100 g monomers
[22] = photochromic laminate by coating method, absorption band at 469 nm
[23] = photochromic laminate by coating method, absorption band at 570 nm
[24] = photochromic laminate by coating method, absorption band at 463 nm
[25] = photochromic laminate by coating method, absorption band at 573 nm

Compound: COc1ccc(C2(c3ccc(OC)cc3)C=Cc3c4c(c5cc(N6CCOCC6)c(OC)cc5c3O2)-c2ccccc2C4(C)C)cc1 [Formula (A), reference compound]
- 35°C color optical density (-) [1, 6]: 1.14 -
- 35°C color optical density (-) [1, 7]: 0.57 -
- A23 (-) [2, 8]: 1.69 -
- A23 (-) [2, 9]: 0.85 -
- 23°C color optical density (-) [2, 6]: 1.65 -
- 23°C color optical density (-) [2, 7]: 0.83 -
- A35/A23 *100 [3, 10]: 69%
- A35/A23 *100 [3, 11]: 68%
- A35/A23 *100 (%) [3, 8]: 69%
- A35/A23 *100 (%) [3, 9]: 68%
- A35/A23 *100 (%) [3, 12]: 70%
- A35/A23 *100 ([3]; photochromic cured product, thickness 1 mm (kneading method)): 70%
- Temperature change rate (%) [3, 13]: 69%
- A35/A23 *100 ([3]; photochromic laminate prepared by coating method): 69%
- Residual rate [4, 10]: 70%
- Residual rate [4, 11]: 76%
- Residual rate (%) [4, 8]: 70%
- Residual rate (%) [4, 9]: 76%
- Residual rate (%) ([4]; cured product by kneading method, 1 mm, absorption peak at 476 nm): 60%
- Residual rate (%) ([4]; cured product by kneading method, 1 mm, absorption peak at 573 nm): 65%
- Residual rate [4, 14]: 60%
- Residual rate [4, 15]: 65%
- Residual rate (%) [4, 6]: 53%
- Residual rate (%) [4, 7]: 57%
- Residual rate [4, 16]: 53%
- Residual rate [4, 17]: 57%
- Maximum absorption wavelength (nm) ([5]; binder sheet (binder method), urethaneurea resin photochromic layer between polycarbonate sheets, 0.25 mmol per 100 parts by mass resin, at 474 nm absorption maximum): 474 nm
- Maximum absorption wavelength (nm) ([5]; binder sheet (binder method), urethaneurea resin photochromic layer between polycarbonate sheets, 0.25 mmol per 100 parts by mass resin, at 566 nm absorption maximum): 566 nm
- Maximum absorption wavelength [5, 10]: 474 nm
- Maximum absorption wavelength [5, 11]: 566 nm
- Maximum absorption wavelength (nm) ([5]; photochromic cured product by kneading method, 1 mm thick thiourethane, 0.106 mmol per 100 g monomers, absorption peak at 476 nm): 476 nm
- Maximum absorption wavelength (nm) ([5]; photochromic cured product by kneading method, 1 mm thick thiourethane, 0.106 mmol per 100 g monomers, absorption peak at 573 nm): 573 nm
- Maximum absorption wavelength [5, 14]: 476 nm
- Maximum absorption wavelength [5, 15]: 573 nm
- Maximum absorption wavelength (nm) ([5]; photochromic laminate by coating method, 40 µm photochromic layer on thiourethane lens, 0.25 mmol compound per 100 g monomers, absorption band at 474 nm): 474 nm
- Maximum absorption wavelength (nm) ([5]; photochromic laminate by coating method, 40 µm photochromic layer on thiourethane lens, 0.25 mmol compound per 100 g monomers, absorption band at 567 nm): 567 nm
- Maximum absorption wavelength [5, 16]: 474 nm
- Maximum absorption wavelength [5, 17]: 567 nm

Compound: COc1ccc(C2(c3ccc(N4CCOCC4)cc3)C=Cc3c4c(c5cc(N6CCOc7ccccc76)c(C)cc5c3O2)-c2ccc(OC)cc2C4(CCCCF)CCCCF)cc1 (stereo not shown) [Example 47 Formula (102)]
- A35 (-) ([1]; binder sheet (binder method)): 0.84 -
- A35 (-) [1, 13]: 0.83 -
- A23 (-) ([2]; binder sheet (binder method)): 1.27 -
- A23 (-) [2, 18]: 1.25 -
- A35/A23 *100 (%) ([3]; binder sheet (binder method)): 66%
- A35/A23 *100 (%) [3, 13]: 66%
- Residual rate (%) ([4]; binder sheet (binder method)): 88%
- Residual rate (%) [4, 13]: 73%
- Maximum absorption wavelength (nm) [5, 19]: 521 nm
- Maximum absorption wavelength (nm) [5, 20]: 521 nm

Compound: CCCC1(CCC)c2ccccc2-c2c1c1c(c3cc(OC)c(N(c4ccccc4)c4ccc(C)cc4)cc23)OC(c2ccc(OC)cc2)(c2ccc(OC)cc2)C=C1 [Example 13 Formula (68)]
- A35 (-) ([1]; binder sheet (binder method)): 1.09 -
- A35 (-) [1, 13]: 1.08 -
- A23 (-) ([2]; binder sheet (binder method)): 1.6
- A23 (-) [2, 18]: 1.57 -
- A35/A23 *100 (%) ([3]; binder sheet (binder method)): 68%
- A35/A23 *100 (%) [3, 13]: 69%
- Residual rate (%) ([4]; binder sheet (binder method)): 96%
- Residual rate (%) [4, 13]: 83%
- Maximum absorption wavelength (nm) [5, 19]: 512 nm
- Maximum absorption wavelength (nm) [5, 20]: 512 nm

Compound: COCCOCCOCCC1(CCOCCOCCOC)c2cc(-c3ccc(OC(C)C)cc3)ccc2-c2c1c1c(c3cc(OC)c(N(C)c4ccc(C(F)(F)F)cc4)cc23)OC(c2ccc(OC)cc2)(c2ccc(OC)cc2)C=C1 [Example 53 Formula (121)]
- A35 (-) [1, 13]: 0.49 - and 0.54 -
- A23 (-) [2, 18]: 0.75 - and 0.82 -
- A35/A23 *100 (%) [3, 13]: 66%
- Residual rate (%) [4, 13]: 76%
- Maximum absorption wavelength (nm) [5, 20]: 457 nm and 592 nm

Compound: CCCCCCOc1ccc(C2(c3ccc(OC)cc3)C=Cc3c4c(c5cc(N(c6ccc(C)cc6)c6ccc(OC)cc6)c(OC)cc5c3O2)-c2ccccc2C42CC(C)(C)CC(C)(C)C2)cc1 (stereo not shown) [Example 15 Formula (75)]
- A35 (-) [1, 12]: 0.76 -
- A35 (-) [1, 13]: 0.74 -
- A23 (-) [2, 12]: 1.22 -
- A23 (-) [2, 18]: 1.20 -
- A35/A23 *100 (%) [3, 12]: 63%
- A35/A23 *100 (%) [3, 13]: 62%
- Residual rate (%) [4, 12]: 81%
- Residual rate (%) [4, 13]: 75%
- Maximum absorption wavelength (nm) [5, 21]: 527 nm
- Maximum absorption wavelength (nm) [5, 20]: 523 nm

Compound: CCCCOc1ccc(C2(c3ccc(OC)cc3)C=Cc3c4c(c5cc(N(C)c6ccccc6)c(OC)cc5c3O2)-c2ccc(-c3ccc(C(C)(C)C)cc3)cc2C4(CC)CC)cc1 (stereo not shown) [Example 45 Formula (94)]
- A35 (-) ([1]; binder sheet (binder method)): 0.88 -
- A35 (-) [1, 13]: 0.86 -
- A23 (-) ([2]; binder sheet (binder method)): 1.24 -
- A23 (-) [2, 18]: 1.21 -
- A35/A23 *100 (%) ([3]; binder sheet (binder method)): 71%
- A35/A23 *100 (%) [3, 13]: 71%
- Residual rate (%) ([4]; binder sheet (binder method)): 92%
- Residual rate (%) [4, 13]: 80%
- Maximum absorption wavelength (nm) [5, 19]: 506 nm
- Maximum absorption wavelength (nm) [5, 20]: 506 nm

Compound: COc1ccc(C2(c3ccc(N4CCOCC4)cc3)C=Cc3c4c(c5cc(N6CCCc7ccccc76)c(OC)cc5c3O2)-c2ccc(C)cc2C4(CCCC(F)(F)F)CCCC(F)(F)F)cc1 (stereo not shown) [Example 8 Formula (54)]
- A35 (-) [1, 12]: 0.79 -
- A35 (-) [1, 13]: 0.75 -
- A23 (-) [2, 12]: 1.20 -
- A23 (-) [2, 18]: 1.18 -
- A35/A23 *100 (%) [3, 12]: 66%
- A35/A23 *100 (%) [3, 13]: 64%
- Residual rate (%) [4, 12]: 80%
- Residual rate (%) [4, 13]: 75%
- Maximum absorption wavelength (nm) [5, 21]: 549 nm
- Maximum absorption wavelength (nm) [5, 20]: 545 nm

Compound: COc1ccc(C2(c3ccc(OC)cc3)C=Cc3c4c(c5cc(Sc6c(C)cccc6C)c(OC)cc5c3O2)-c2ccccc2C4(C)C)cc1 [Formula (C), reference compound]
- 35°C color optical density (-) [1, 22]: 0.78 -
- 35°C color optical density (-) [1, 23]: 0.50 -
- 23°C color optical density (-) [2, 22]: 1.20 -
- 23°C color optical density (-) [2, 23]: 0.77 -
- Temperature change rate (%) [3, 13]: 65%
- Residual rate (%) [4, 13]: 73%
- Maximum absorption wavelength (nm) ([5]; photochromic laminate by coating method, 40 µm photochromic layer on thiourethane lens, 0.25 mmol compound per 100 g monomers, absorption band at 469 nm): 469 nm
- Maximum absorption wavelength (nm) ([5]; photochromic laminate by coating method, 40 µm photochromic layer on thiourethane lens, 0.25 mmol compound per 100 g monomers, absorption band at 570 nm): 570 nm

Compound: CCCCOc1ccc(C2(c3ccc(OCCCC)cc3)C=Cc3c4c(c5cc(NC(=O)c6ccccc6)c(OC)cc5c3O2)-c2ccccc2C4(C)C)cc1 [Formula (B), reference compound]
- 35°C color optical density (-) [1, 24]: 0.88 -
- 35°C color optical density (-) [1, 25]: 0.62 -
- 23°C color optical density (-) [2, 24]: 1.30 -
- 23°C color optical density (-) [2, 25]: 0.90 -
- Temperature change rate (%) [3, 13]: 68%
- Residual rate (%) [4, 13]: 68%
- Maximum absorption wavelength (nm) ([5]; photochromic laminate by coating method, 40 µm photochromic layer on thiourethane lens, 0.25 mmol compound per 100 g monomers, absorption band at 463 nm): 463 nm
- Maximum absorption wavelength (nm) ([5]; photochromic laminate by coating method, 40 µm photochromic layer on thiourethane lens, 0.25 mmol compound per 100 g monomers, absorption band at 573 nm): 573 nm
